The source of these data is ChEMBL document CHEMBL2016512, “Calcitonin gene-related peptide (CGRP) receptor antagonists: novel aspartates and succinates” (Bioorg Med Chem Lett, 2012).

For data set [1], the target named is T1, Calcitonin gene-related peptide type 1 receptor (Homo sapiens, UniProt O60894+Q16602). The data set can be described thus: Displacement of [125]CGRP from human CGRP receptor expressed in human SK-N-MC cell membrane after 2 hrs by scintillation counting. The class given is cell membranes.
Data set [2] has as its target T1, Calcitonin gene-related peptide type 1 receptor. The data set can be described thus: Antagonist activity at human CGRP receptor expressed in human SK-N-MC cells assessed as inhibition of CGRP-stimulated cAMP production. It counts as functional, cell-based. A general note: Cyclic AMP is a second messenger, typically raised through Gs and lowered through Gi signalling.

Data set [3] relates to Caco-2. The data set can be described thus: Permeability across human Caco2 cells. It counts as ADME, cell-based. (Caco-2 monolayers are a common model of the intestinal barrier.)
Data set [4] in a line: Solubility of the compound. The class given is physicochemical.
A short description of data set [5]: Aqueous solubility of the compound. The class given is physicochemical. The note with it: buffer.

T1 sequence (Q16602 whole entry, one chain of several): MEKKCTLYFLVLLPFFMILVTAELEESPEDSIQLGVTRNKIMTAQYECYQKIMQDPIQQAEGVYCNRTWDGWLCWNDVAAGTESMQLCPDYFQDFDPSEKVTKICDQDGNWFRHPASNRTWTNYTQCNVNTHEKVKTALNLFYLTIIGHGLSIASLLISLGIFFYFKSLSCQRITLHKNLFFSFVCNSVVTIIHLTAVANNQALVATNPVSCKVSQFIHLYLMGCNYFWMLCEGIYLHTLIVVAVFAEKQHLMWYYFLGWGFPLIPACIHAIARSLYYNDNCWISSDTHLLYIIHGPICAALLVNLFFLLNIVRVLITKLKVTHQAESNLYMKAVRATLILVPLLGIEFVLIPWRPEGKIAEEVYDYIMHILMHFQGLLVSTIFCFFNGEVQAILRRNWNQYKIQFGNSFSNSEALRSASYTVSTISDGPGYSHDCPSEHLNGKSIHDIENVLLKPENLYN

As a reminder, the IC50 is the concentration that inhibits the measured activity by half. In the case of `O=C(C[C@H](NCc1ccccn1)C(=O)N1CCC(N2CCCCC2)CC1)N1CCC(N2Cc3ccccc3NC2=O)CC1`, in data set [1], the IC50 is 700 nM.
On the same count and under the same terms, with `O=C(C[C@H](NCc1ccc2[nH]ccc2c1)C(=O)N1CCC(N2CCCCC2)CC1)N1CCC(N2Cc3ccccc3NC2=O)CC1` the figure was 380 nM.
With `O=C(C[C@H](NCc1ccc2[nH]ncc2c1)C(=O)N1CCC(N2CCCCC2)CC1)N1CCC(N2Cc3ccccc3NC2=O)CC1`, the IC50 in data set [2] was determined as 300 nM; in data set [1], 130 nM.
With `O=C(C[C@H](NC1CCC(O)CC1)C(=O)N1CCC(N2CCCCC2)CC1)N1CCC(N2Cc3ccccc3NC2=O)CC1` (stereo not given in full), the half-maximal inhibitory concentration (IC50) in data set [1] came to 4500 nM.
Still for that read-out and setting: with `O=C(N[C@@H](CC(=O)N1CCC(N2Cc3ccccc3NC2=O)CC1)C(=O)N1CCC(N2CCCCC2)CC1)c1ccc(F)c(F)c1` the figure was 430 nM; with `CC(C)(C)OC(=O)N[C@@H](CC(=O)N1CCC(N2Cc3ccccc3NC2=O)CC1)C(=O)N1CCC(N2CCCCC2)CC1`, 590 nM; with `O=C(N[C@@H](CC(=O)N1CCC(N2Cc3ccccc3NC2=O)CC1)C(=O)N1CCC(N2CCCCC2)CC1)Oc1ccccc1`, 280 nM.
For the molecule `O=C(Nc1cccc(Cl)c1Cl)N[C@@H](CC(=O)N1CCC(N2Cc3ccccc3NC2=O)CC1)C(=O)N1CCC(N2CCCCC2)CC1`, the IC50 in data set [1] was determined as 97 nM. Besides, the permeability result in data set [3] was “impermeable”. For the same molecule, in data set [4], the solubility result is given as “Insoluble”.
In the same order, the values of `O=C(Nc1ccc(Cl)cc1Cl)N[C@@H](CC(=O)N1CCC(N2Cc3ccccc3NC2=O)CC1)C(=O)N1CCC(N2CCCCC2)CC1` are 36 nM, “impermeable” and “Insoluble”.
In the same order, the values of `O=C(Nc1ccccc1F)N[C@@H](CC(=O)N1CCC(N2Cc3ccccc3NC2=O)CC1)C(=O)N1CCC(N2CCCCC2)CC1` are 45 nM, “impermeable” and “Insoluble”.
On to `O=C(Nc1ccccc1Cl)N[C@@H](CC(=O)N1CCC(N2Cc3ccccc3NC2=O)CC1)C(=O)N1CCC(N2CCCCC2)CC1`, for which the half-inhibitory concentration (IC50) in data set [2] was 100 nM. Besides, the permeability result in data set [3] was “impermeable”. For the same molecule, the solubility result in data set [4] is given as “Insoluble”.
Take `O=C(C[C@H](Nc1cc(Cl)ncn1)C(=O)N1CCC(N2CCCCC2)CC1)N1CCC(N2Cc3ccccc3NC2=O)CC1`: the IC50 in data set [2] is 46 nM; in data set [1], 98 nM.
Regarding `O=C(C[C@H](Nc1ccncn1)C(=O)N1CCC(N2CCCCC2)CC1)N1CCC(N2Cc3ccccc3NC2=O)CC1`, the half-maximal inhibitory concentration (IC50) in data set [1] came to 1400 nM.
In the case of `O=C(C[C@H](Nc1ccc(Cl)cc1[N+](=O)[O-])C(=O)N1CCC(N2CCCCC2)CC1)N1CCC(N2Cc3ccccc3NC2=O)CC1`, the IC50 in data set [2] and in data set [1] was 32 nM each time.
Turning to `O=C(C[C@H](Nc1nc(Cl)nc2[nH]ncc12)C(=O)N1CCC(N2CCCCC2)CC1)N1CCC(N2Cc3ccccc3NC2=O)CC1`, the IC50 in data set [2] was determined as 99 nM; in data set [1] it was 250 nM.
`Cc1nc(N[C@@H](CC(=O)N2CCC(N3Cc4ccccc4NC3=O)CC2)C(=O)N2CCC(N3CCCCC3)CC2)nc(N)c1[N+](=O)[O-]`: the IC50 in data set [1] came out at 80 nM.
As to `Cc1nc(N[C@@H](CC(=O)N2CCC(N3Cc4ccccc4NC3=O)CC2)C(=O)N2CCC(N3CCCCC3)CC2)nc2nn[nH]c12`, the IC50 in data set [2] stood at 120 nM; in data set [1], 73 nM.
In the same order, the values of `O=C(C[C@H](Nc1ccc2[nH]ccc2c1)C(=O)N1CCC(N2CCCCC2)CC1)N1CCC(N2Cc3ccccc3NC2=O)CC1` are 59 nM and 180 nM.
Taken in the same sequence, the figures for `O=C(C[C@H](Nc1ccc2[nH]ncc2c1)C(=O)N1CCC(N2CCCCC2)CC1)N1CCC(N2Cc3ccccc3NC2=O)CC1` were 230 nM and 170 nM.
`O=C(C[C@H](Nc1cccc2ncccc12)C(=O)N1CCC(N2CCCCC2)CC1)N1CCC(N2Cc3ccccc3NC2=O)CC1`: the IC50 in data set [1] stood at 890 nM.
As for `O=C(C[C@H](Nc1ccc(Br)c2ccccc12)C(=O)N1CCC(N2CCCCC2)CC1)N1CCC(N2Cc3ccccc3NC2=O)CC1`, in data set [1], the IC50 was 120 nM.
Still for that read-out and setting: with `O=C(C[C@H](Nc1cccc2ccccc12)C(=O)N1CCC(N2CCCCC2)CC1)N1CCC(N2Cc3ccccc3NC2=O)CC1` the figure was 220 nM.
For the molecule `Cc1cc(C[C@@H](CC(=O)N2CCC(N3Cc4ccccc4NC3=O)CC2)C(=O)N2CCC(N3CCCCC3)CC2)cc2cn[nH]c12`, the IC50 in data set [2] was 0.019 nM; in data set [1], 0.06 nM. Further, the solubility entry in data set [5] is “Insoluble”. Further, the permeability result in data set [3] is reported as “impermeable”.
Taken in the same sequence, the figures for `Cc1cc(C[C@H](CC(=O)N2CCC(N3Cc4ccccc4NC3=O)CC2)C(=O)N2CCC(N3CCCCC3)CC2)cc2cn[nH]c12` were 11 nM, 11 nM, “Insoluble” and “impermeable”.
In the same order, the values of `Cc1cc(C[C@@H](CC(=O)N2CCC(N3Cc4cccc(F)c4NC3=O)CC2)C(=O)N2CCC(N3CCCCC3)CC2)cc2cn[nH]c12` are 0.082 nM, 0.2 nM, “Insoluble” and “impermeable”.
In the same order, the values of `Cc1cc(C[C@H](CC(=O)N2CCC(N3Cc4cccc(F)c4NC3=O)CC2)C(=O)N2CCC(N3CCCCC3)CC2)cc2cn[nH]c12` are 4.6 nM, 6.7 nM, “Insoluble” and “impermeable”.
`Cc1cc(CC(CC(=O)N2CCC3(CC2)OC(=O)Nc2ccccc23)C(=O)N2CCC(N3CCCCC3)CC2)cc2cn[nH]c12` (racemic): the half-inhibitory concentration (IC50) in data set [2] was found to be 0.7 nM; in data set [1] it was 0.33 nM.
Taken in the same sequence, the figures for `Cc1cc(CC(CC(=O)N2CCC(N3Cc4ccccc4NC3=O)CC2)C(=O)N2CCC(N3CCCCC3)CC2)cc2cn[nH]c12` (racemic) were 0.068 nM and 0.074 nM.
Regarding `Cc1cc(CC(CC(=O)N2CCC(N3Cc4cccc(F)c4NC3=O)CC2)C(=O)N2CCC(N3CCCCC3)CC2)cc2cn[nH]c12` (racemic), the IC50 was determined as 0.089 nM in data set [2] and 0.18 nM in data set [1].
Taken in the same sequence, the figures for `Cc1cc(CC(CC(=O)N2CCC3(CC2)NC(=O)Nc2ccccc23)C(=O)N2CCC(N3CCCCC3)CC2)cc2cn[nH]c12` (racemic) were 0.35 nM and 0.34 nM.
Taken in the same sequence, the figures for `Cc1cc(CC(CC(=O)N2CCC(n3cc(-c4ccccc4)[nH]c3=O)CC2)C(=O)N2CCC(N3CCCCC3)CC2)cc2cn[nH]c12` (racemic) were 0.049 nM and 0.15 nM.
Regarding `Cc1cc(CC(CC(=O)N2CCC(c3cc4ccccc4[nH]c3=O)CC2)C(=O)N2CCC(N3CCCCC3)CC2)cc2cn[nH]c12` (racemic), the figures for the concentration for half-maximal inhibition (IC50) in data set [2] and in data set [1] were 0.12 nM and 0.3 nM, respectively.
Taken in the same sequence, the figures for `Cc1cc(CC(CC(=O)N2CCC(N3Cc4ccccc4NC3=O)CC2)C(=O)N2CCC3(CC2)OCCO3)cc2cn[nH]c12` (racemic) were 5.8 nM and 3.2 nM.
In the same order, the values of `Cc1cc(CC(CC(=O)N2CCC3(CC2)OC(=O)Nc2ccccc23)C(=O)N2CCC3(CC2)OCCO3)cc2cn[nH]c12` (racemic) are 8.8 nM and 5.9 nM.
Taken in the same sequence, the figures for `Cc1cc(CC(CC(=O)N2CCC(N3Cc4ccccc4NC3=O)CC2)C(=O)N2CCC(C)CC2)cc2cn[nH]c12` (racemic) were 2 nM and 2.7 nM.
Consider `Cc1cc(CC(CC(=O)N2CCC3(CC2)OC(=O)Nc2ccccc23)C(=O)N2CCCCC2)cc2cn[nH]c12` (racemic), for which the 50% inhibitory concentration (IC50) was determined as 34 nM in data set [2] and 19 nM in data set [1].
As to `Cc1cc(CC(CC(=O)N2CCC(N3Cc4ccccc4NC3=O)CC2)C(=O)N2CCCCC2)cc2cn[nH]c12` (racemic), the IC50 turned out to be 6.9 nM in data set [2] and 3.7 nM in data set [1].
In the same order, the values of `O=C1Nc2ccccc2C2(CCN(C(=O)CC(Cc3ccc4[nH]ncc4c3)C(=O)N3CCC(N4CCCCC4)CC3)CC2)O1` (racemic) are 53 nM and 15 nM.
In the same order, the values of `O=C(CC(Cc1ccc2[nH]ncc2c1)C(=O)N1CCC2(CC1)OCCO2)N1CCC(N2Cc3ccccc3NC2=O)CC1` (racemic) are 320 nM and 87 nM.
With `O=C1Nc2ccccc2C2(CCN(C(=O)CC(Cc3ccc4[nH]ncc4c3)C(=O)N3CCC4(CC3)OCCO4)CC2)O1` (racemic), the IC50 in data set [1] was found to be 460 nM.
